Test results from patent publication US20260285909A1, “PEPTIDES FOR ANTIMICROBIAL THERAPY” (Karl-Franzens-Universität Graz, priority 2023, published 2026).

Tests used:
[1] = tested on: Gram-negative and Gram-positive bacteria; experiment: Antimicrobial activity, overall statement; format: cell-based; settings: against both Gram-negative and Gram-positive bacteria
Description: (§1) Antimicrobial activity: S. aureus JAR060131, Enterococcus hirae ATCC 10541, Bacillus subitlis 168C trpC2, Escherichia coli ATCC25992 or their variants were cultured to mid-logarithmic phase in tryptic soy broth, brain heart infusion (BHIB), mueller hinton (MHB) or luria broth (LB) and washed once with PBS. Approximately 1×10^6 CFU/ml of PBS were incubated with peptide (final concentrations: 0-102.4 μM) for 0-2 h at 37° C. under shaking conditions. Thereafter, the number of viable bacteria was determined by plating on diagnostic sensitivity agar. Antimicrobial activity is expressed as the 99.9% killing concentration (LC99.9), i.e., the lowest peptide concentration that killed ≥99.9% of bacteria.

[2] = tested on: B. subtilis 168 trpC2; experiment: Antimicrobial activity (LC99.9), killing in PBS with plating; format: cell-based, Bacillus subtilis; settings: Gram-positive bacteria, lowest peptide concentration that killed ≥99.9% of bacteria, 37° C.
Description: (§2) In the context of the present invention, the test whether a peptide has an antimicrobial activity which is higher than the antimicrobial activity of peptide OP-145 (acetyl-[…]-amide (SEQ ID NO: 50)) may be performed according to any method known in the art, as for instance disclosed in Balouiri et al, 2016. In particular, S. aureus JAR060131, Enterococcus hirae ATCC 10541, Bacillus subitlis 168C trpC2 or Escherichia coli ATCC25992 are cultured to mid-logarithmic phase in tryptic soy broth, brain heart infusion (BHIB), mueller hinton (MHB) or luria broth (LB) and washed once with PBS. […] Thereafter, the number of viable bacteria is determined by plating on diagnostic sensitivity agar. Antimicrobial activity is expressed as the 99.9% killing concentration (LC99.9), i.e., the lowest peptide concentration that killed ≥99.9% of bacteria. […]
as §1, with “Approximately 1×10^6 CFU/ml of PBS were incubated with peptide (final concentrations: 0-102.4 μM) for 0-2 h at 37° C. under shaking conditions.” left out

[3] = tested on: human erythrocytes; experiment: Hemolysis assay; format: cell-based
Description: In the context of the present invention, the test whether a peptide has a hemolytic activity which is lower than the hemolytic activity of peptide OP-145 (acetyl-[…]-amide (SEQ ID NO: 50)) may be performed according to any method known in the art, as for instance disclosed in Avrahami & Shai, 2004. In particular, a 0.5% erythrocyte solution in phosphate-buffered saline is exposed to the respective peptide (e.g. at 1 μM or 10 μM or 20 μM or 50 μM) at 37° C. for 1 h; hemolysis is determined by measuring optical density of the cell supernatants at 415 nm. More specifically, the assay may be performed as follows: Whole venous blood of healthy volunteers is collected in citrate tubes. Erythrocytes are isolated by centrifuging the blood for 10 min at 2,000×g and subsequently washing twice in PBS. […] After 1 h at 37° C. under static conditions, the erythrocyte suspensions are centrifuged and the optical density of the supernatants is determined at 415 nm. The percentage of hemolysis may be calculated relative to a positive control (e.g. 1% Triton X-100).
Hemolysis assay: Whole venous blood of healthy volunteers was collected in citrate tubes. […] After 1 h at 37° C. under static conditions, the erythrocyte suspensions were centrifuged and the optical density of the supernatants was determined at 415 nm. The percentage of hemolysis was calculated relative to the positive control (1% Triton X-100).

[4] = tested on: E. coli ATCC25992; experiment: Antimicrobial activity (LC99.9), killing in PBS with plating; format: cell-based, Escherichia coli; settings: Gram-negative bacteria, lowest peptide concentration that killed ≥99.9% of bacteria, 37° C.
Description: as §2
as §1, with “Approximately 1×10^6 CFU/ml of PBS were incubated with peptide (final concentrations: 0-102.4 μM) for 0-2 h at 37° C. under shaking conditions.” left out

[5] = tested on: multi-resistant clinical isolates; experiment: Bactericidal activity against multi-resistant clinical isolates (FIG. 4); format: cell-based; settings: 1 h treatment with peptides in presence of PBS
Description: Bactericidal activity was tested (for 1 h treatment with peptides) in presence of PBS according to de Breij et al., 2018. Bactericidal activity is expressed as LC99.9%—is the lethal concentration causing death in 99.9% cells. Results are ranges of at least three independent experiments. If no range is given, then LC99.9 values were identical in all experiments.
as §1

Sequence | antimicrobial activity compared to OP-145I12K [1] | LC99.9% [2] [µM] | lysis of human erythrocytes [3] | LC99.9% [4] [µM] | antimicrobial (bactericidal) activity against multi-resistant clinical isolates [5]
IGKEFKRIVERKWRFLRELVRPLR [SEQ ID NO: 2] | improved antimicrobial activity | 3.2 | did not lyse the human erythrocytes | 6.4 | 
IGKKFKRIVRRKKRFLRKLVRPLR [SEQ ID NO: 3] | improved antimicrobial activity | 3.2 | did not lyse the human erythrocytes | 3.2 | Excellent antimicrobial activity
